Consider five compounds from ChEMBL document CHEMBL5107995, “Novel difluoromethylated 1-(phenylsulfonyl)-4-(piperazin-1-yl)-1H-indole derivatives as potent 5-HT6 receptor antagonist with AMDE-improving properties: Design, synthesis, and biological evaluation” (Bioorg Med Chem, 2022).

Data set [1] can be described thus: Cmax in Sprague-Dawley rat at 2 mg/kg, iv measured for 24 hrs by LC-MS/MS analysis. The data set is classed as ADME, organism-based. The arrangement: time 24 hrs, dose 2 mg/kg, route iv. The note with it: in vivo.
Data set [2] is described as follows: AUC (0 to t) in Sprague-Dawley rat at 2 mg/kg, iv measured for 24 hrs by LC-MS/MS analysis. The following applies: in vivo; for AUC(0-t) at 24 h: Sprague-Dawley. The data set is classed as ADME, organism-based. The arrangement: dose 2 mg/kg, time 24 hrs, route iv.
Data set [3] is described as follows: Half life in Sprague-Dawley rat at 2 mg/kg, iv measured for 24 hrs by LC-MS/MS analysis. The note with it: in vivo. The data set is classed as ADME, organism-based.
Data set [4] can be described thus: Volume of distribution at steady state in Sprague-Dawley rat at 2 mg/kg, iv measured for 24 hrs by LC-MS/MS analysis. The data set is classed as ADME, organism-based. The note with it: in vivo, read-out: Vdss.
A short description of data set [5]: Clearance in Sprague-Dawley rat at 2 mg/kg, iv measured for 24 hrs by LC-MS/MS analysis. The following applies: in vivo. The data set is classed as ADME, organism-based.
A short description of data set [6]: Cmax in Sprague-Dawley rat at 5 mg/kg, po measured for 24 hrs by LC-MS/MS analysis. Also on record: time 24 hrs, dose 5 mg/kg, route po. The note with it: in vivo. The data set is classed as ADME, organism-based.
The nature of data set [7]: AUC (0 to t) in Sprague-Dawley rat at 5 mg/kg, po measured for 24 hrs by LC-MS/MS analysis. The data set is classed as ADME, organism-based. The arrangement: time 24 hrs, dose 5 mg/kg, route po. The following applies: in vivo; for AUC(0-t) at 24 h: Sprague-Dawley.
Data set [8] is described as follows: Half life in Sprague-Dawley rat at 5 mg/kg, po measured for 24 hrs by LC-MS/MS analysis. The data set is classed as ADME, organism-based. The following applies: in vivo.
The nature of data set [9]: Oral bioavailability in Sprague-Dawley rat at 5 mg/kg measured for 24 hrs by LC-MS/MS analysis. The data set is classed as ADME, organism-based. The following applies: in vivo; for bioavailability: Sprague-Dawley.
Data set [10] in a line: Drug concentration in Sprague-Dawley rat plasma at 1 mg/kg, iv measured after 15 mins by LC-MS/MS analysis. The data set is classed as ADME, organism-based.
The nature of data set [11]: Drug concentration in Sprague-Dawley rat plasma at 1 mg/kg, iv measured after 45 mins by LC-MS/MS analysis. The data set is classed as ADME, organism-based.
Data set [12] is described as follows: Drug concentration in Sprague-Dawley rat plasma at 1 mg/kg, iv measured after 75 mins by LC-MS/MS analysis. The data set is classed as ADME, organism-based.
A short description of data set [13]: Drug concentration in Sprague-Dawley rat brain at 1 mg/kg, iv measured after 15 mins by LC-MS/MS analysis. The data set is classed as ADME, organism-based. The note with it: read-out: Ct.
The nature of data set [14]: Drug concentration in Sprague-Dawley rat brain at 1 mg/kg, iv measured after 45 mins by LC-MS/MS analysis. The data set is classed as ADME, organism-based. The following applies: read-out: Ct.
The nature of data set [15]: Drug concentration in Sprague-Dawley rat brain at 1 mg/kg, iv measured after 75 mins by LC-MS/MS analysis. The note with it: read-out: Ct. The data set is classed as ADME, organism-based.
The nature of data set [16]: Ratio of drug concentration in Sprague-Dawley rat brain to plasma at 1 mg/kg, iv measured after 15 mins by LC-MS/MS analysis. The data set is classed as ADME, organism-based. The following applies: brain and plasma, read-out: BPR.
Data set [17] can be described thus: Ratio of drug concentration in Sprague-Dawley rat brain to plasma at 1 mg/kg, iv measured after 45 mins by LC-MS/MS analysis. The data set is classed as ADME, organism-based. The note with it: brain and plasma, read-out: BPR.
Data set [18] is described as follows: Ratio of drug concentration in Sprague-Dawley rat brain to plasma at 1 mg/kg, iv measured after 75 mins by LC-MS/MS analysis. The following applies: brain and plasma, read-out: BPR. The data set is classed as ADME, organism-based.
For data set [19], the system named is Rattus norvegicus. The experiment in a line: Cognitive enhancing effect in Wistar rat model of scopolamine-induced cognitive impairment assessed as rescue of loss of preference for new object at 3 to 5 mg/kg, ip administered as single dose for 30 mins followed by scopolamine addition and measured after 30 mins by Novel object recognition assay. The data set is classed as functional, organism-based. The note with it: dose 3-5 mg/kg, time 1.0 hrs.

The test system of data set [20] is Mus musculus. Nature of the data set: Cognitive enhancing effect in C57BL/6J mouse model of scopolamine-induced memory deficit assessed as reduction in incubation period of mouse entering into dark compartment at 10 mg/kg, ip pretreated for 30 mins followed by scopolamine addition and measured after 30 mins by step-through passive avoidance test. The following applies: time 1.0 hrs. The data set is classed as functional, organism-based.

Data set [21] is described as follows: In vivo antagonist activity at 5-HT6R in Sprague-Dawley rat assessed as increase in intracerebral hippocampal acetylcholine level at 1.5 mg/kg, ip pretreated for 30 mins followed by donepezil addition and measured every 20 mins for 360 mins by LC-MS/MS analysis relative to control. Also on record: scale not given: the % may be the effect or the level left. The following applies: time 390 min, 6.5 h. The data set is classed as functional.

Data set [22] can be described thus: In vivo antagonist activity at 5-HT6R in Sprague-Dawley rat assessed as increase in intracerebral hippocampal acetylcholine level at 5 mg/kg, ip pretreated for 30 mins followed by donepezil addition and measured every 20 mins for 360 mins by LC-MS/MS analysis relative to control. The data set is classed as functional. The arrangement: scale not given: the % may be the effect or the level left. The note with it: time 390 min, 6.5 h.

Data set [23] addresses 5-hydroxytryptamine receptor 6 (Homo sapiens, UniProt P50406). Nature of the data set: Displacement of [3H]-LSD from human 5HT6 receptor expressed in CHO cells assessed as inhibition constant incubated for 120 mins by liquid scintillation counting analysis. The data set is classed as cell-based.

Each structure is given as a SMILES string. Activity calls are given as the source filed them.

5-hydroxytryptamine receptor 6, sequence (P50406 whole entry): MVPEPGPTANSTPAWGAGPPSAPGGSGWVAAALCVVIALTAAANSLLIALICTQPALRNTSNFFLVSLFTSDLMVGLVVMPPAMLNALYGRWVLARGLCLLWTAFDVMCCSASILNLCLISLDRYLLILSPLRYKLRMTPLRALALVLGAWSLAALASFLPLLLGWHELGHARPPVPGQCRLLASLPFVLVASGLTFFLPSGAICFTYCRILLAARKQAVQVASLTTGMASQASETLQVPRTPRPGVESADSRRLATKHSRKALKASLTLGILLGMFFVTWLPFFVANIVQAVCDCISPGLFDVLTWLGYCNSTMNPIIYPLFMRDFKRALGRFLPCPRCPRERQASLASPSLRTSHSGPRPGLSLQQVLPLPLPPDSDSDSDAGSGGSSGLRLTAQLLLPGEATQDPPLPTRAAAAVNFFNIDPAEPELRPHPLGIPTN

One may read the Cmax as the peak of the concentration-time curve. As a reminder, the AUC(0-t) is exposure summed from dosing to a finite time, without extrapolation to infinity. Broadly, the half-life is the time needed for the level to fall by half in the phase considered. The term clearance denotes the volume of plasma or blood freed of the substance per unit of time. In general, bioavailability refers to the share of a dose that reaches the circulation, judged against a reference dose that is usually intravenous. Regarding `O=S(=O)(c1ccccc1Cl)n1cc(C(F)F)c2c(N3CCNCC3)cccc21`, the Cmax stood at 120 ng/mL in data set [1] and 33.6 ng/mL in [6]. The AUC(0-t) at 24 h was 242 ng·h/mL in [2] and 162 ng·h/mL in data set [7]. Further, the half-life in [3] was 2.55 h; in data set [8] it was 3.01 h. In [4], the Vd stood at 25.8 L/kg. For the same compound, the clearance in data set [5] was 123 mL/min/kg. The bioavailability in [9] amounted to 29.5%.
Regarding `O=S(=O)(c1cccc(F)c1)n1cc(C(F)F)c2c(N3CCNCC3)cccc21`, the results for the Cmax in [1] and in [6] were 140 ng/mL and 51.8 ng/mL, respectively. For the same compound, the AUC(0-t) at 24 h in data set [2] was 323 ng·h/mL; in data set [7], 267 ng·h/mL. Further, the half-life was 2.28 h in data set [3] and 4.33 h in data set [8]. In data set [4], the Vd stood at 18.8 L/kg. The clearance in data set [5] turned out to be 93.4 mL/min/kg. Besides, the bioavailability in [9] worked out at 34.4%. Besides, the concentration at 0.25 h turned out to be 58.1 ng/mL in data set [10] and 279 ng/g in data set [13]. Besides, the concentration at 0.75 h in data set [11] was 30.3 ng/mL; in data set [14], 187 ng/g. In addition, the concentration at 1.25 h was determined as 20.8 ng/mL in data set [12] and 128 ng/g in data set [15]. Also, in data set [16], the Kp at 0.25 h was determined as 4.81. Besides, the Kp at 0.75 h in data set [17] stood at 6.17. The Kp at 1.25 h in data set [18] stood at 6.16. Also, the outcome in data set [19] and in data set [20] was Active. Moreover, the Activity in [21] was 235%; in [22], 287%.
As for `O=S(=O)(c1ccccc1F)n1cc(C(F)F)c2c(N3CCNCC3)cccc21`, the Cmax in data set [1] is 112 ng/mL; in data set [6], 33.6 ng/mL. For the same compound, the AUC(0-t) at 24 h in data set [2] was determined as 272 ng·h/mL; in [7], 132 ng·h/mL. The half-life in data set [3] was 2.54 h; in data set [8] it was 1.98 h. Also, the Vd in [4] was determined as 24 L/kg. Also, in [5], the clearance was found to be 108 mL/min/kg. The compound also came in with a bioavailability in [9] of 18.5%.
In general, Ki refers to the dissociation constant of the complex between target and ligand, obtained from inhibition or displacement. For the compound `Cc1cn(S(=O)(=O)c2cccc(F)c2)c2cccc(N3CCNCC3)c12`, in data set [23], the Ki was 510 pM. Further, the values for the Cmax in data set [1] and in [6] were 159 ng/mL and 3.61 ng/mL, respectively. Besides, the AUCt in data set [2] (24 h) came out at 254 ng·h/mL; in [7] (24 h), 9.37 ng·h/mL. The compound also gave a half-life in data set [3] of 1.4 h. For the same compound, in [4], the Vd was 6.7 L/kg. In [5], the clearance is 63 mL/min/kg. Further, in data set [9] (po, 5 mg/kg, 24 h), the F is on record as 5.95%.
In the case of `O=S(=O)(c1cccc(Cl)c1)n1cc(C(F)F)c2c(N3CCNCC3)cccc21`, the Cmax in data set [1] was found to be 200 ng/mL; in [6], 44.1 ng/mL. Further, the AUC(0-t) at 24 h in data set [2] was 306 ng·h/mL; in data set [7] it was 348 ng·h/mL. The half-life in data set [3] was 4.46 h; in data set [8], 4.39 h. The Vd in [4] is 26.6 L/kg. The compound also yielded a clearance in data set [5] of 82.8 mL/min/kg. For the same compound, the bioavailability in [9] was 37%. Besides, the concentration at 0.25 h was 434 ng/mL in data set [10] and 406 ng/g in data set [13]. Further, the concentration at 0.75 h in data set [11] was 127 ng/mL; in [14], 302 ng/g. For the same compound, the figures for the concentration at 1.25 h in [12] and in data set [15] were 69.6 ng/mL and 224 ng/g, respectively. The Kp at 0.25 h in data set [16] turned out to be 0.94. For the same compound, the Kp at 0.75 h in data set [17] is 2.37. Moreover, the Kp at 1.25 h in [18] came to 3.21.
